Kd and EC50 data for 16 compounds are collected here from patent US10947252B2, “Inhibitors of KEAP1-Nrf2 protein-protein interaction” (Janssen Pharmaceutica NV, priority 2018, dated 2021).

The Kd is the equilibrium constant for the complex coming apart. For orientation: EC50 means the concentration at which the effect is half-maximal. High values mean a need for much substance, low ones an effect from little substance.

Assay [1] has as its target Kelch domain of human KEAP1 (321-624 aa) (Homo sapiens (Human), UniProt Q14145). Nature of the assay: KEAP1 KELCH ThermoFluor binding assay.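 Further: Ligand-induced melting temperature shift of E. coli-expressed KEAP1 Kelch protein, Kd estimated from concentration-response curves of ΔTm.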 The following applies: KEAP Kelch […], 1,8-ANS, pH 7.0, average of results obtained, read-out: Tf Kd. In general terms: In DSF a fluorescence change marks the thermal transition of the protein.
Assay [2] concerns Glo-Response ARE-luc2P HEK293 cell line. Nature of the assay: ARE luciferase reporter cell-based assay.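 Further: luciferase signal tracks Nrf2 activation of the ARE once compounds disrupt KEAP1-Nrf2 binding, read with One-Glo reagent, DMSO serving as low control.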 Particulars: average of results obtained. A general note: A reporter such as luciferase makes a cellular process visible.

A value given as a limit tells only on which side of the number the result lay.

Kelch domain of human KEAP1 (321-624 aa), sequence (Q14145 321-624): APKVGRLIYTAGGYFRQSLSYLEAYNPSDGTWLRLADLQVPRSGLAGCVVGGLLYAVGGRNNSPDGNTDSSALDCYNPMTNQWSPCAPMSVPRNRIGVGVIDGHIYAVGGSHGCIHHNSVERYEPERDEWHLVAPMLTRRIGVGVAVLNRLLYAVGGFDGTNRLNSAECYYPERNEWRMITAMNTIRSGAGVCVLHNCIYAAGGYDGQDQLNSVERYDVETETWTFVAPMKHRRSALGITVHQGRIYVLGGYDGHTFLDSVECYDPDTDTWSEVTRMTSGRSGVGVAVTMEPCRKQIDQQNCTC

For the compound `Cc1cnc2c(c1)S(=O)(=O)N(Cc1cc([C@H](c3ccc4c(nnn4C4CC4)c3C)C(C)(C)C(=O)O)cnc1C)CC1(CC1)O2` (single isomer, unassigned) [Example 396, (*R)-3-(1-Cyclopropyl-4-methyl-1H-benzo[d][1,2,3]triazol-5-yl)-2,2-dimethyl-3-(6-methyl-5-((8′-methyl-1′,1′-dioxidospiro[cyclopropane-1,4′-pyrido[2,3-b][1,4,5]oxathiazepin]-2′(3′H)-yl)methyl)pyridin-3-yl)propanoic Acid], the Kd in assay [1] was 21800 nM. The compound further yielded a concentration giving a half-maximal response (EC50) in assay [2] (Homo sapiens, HEK293, 24 h) of 4900 nM.

Regarding `Cc1ccc([C@H](CC(=O)O)c2ccc3c(nnn3C3CC3)c2C)cc1CN1C[C@@H]2CCCCN2c2ncccc2S1(=O)=O` (single isomer, unassigned) [Example 398, (*S)-3-(1-Cyclopropyl-4-methyl-1H-benzo[d][1,2,3]triazol-5-yl)-3-(3-(((*S)-5,5-dioxido-7,7a,8,9,10,11-hexahydro-6H-dipyrido[2,1-d:2′,3′-f][1,2,5]thiadiazepin-6-yl)methyl)-4-methylphenyl)propanoic Acid], the Kd in assay [1] is < 1 nM. Moreover, the response in assay [2] (Homo sapiens, HEK293, 24 h) was half-maximal at 1.4 nM (EC50).

As for `Cc1ccc(C(CC(=O)O)c2ccc3c(nnn3C3CC3)c2C)cc1CN1C[C@@H]2CCCCN2c2ncccc2S1(=O)=O` (single isomer, unassigned) [Example 399, (*R)-3-(1-Cyclopropyl-4-methyl-1H-benzo[d][1,2,3]triazol-5-yl)-3-(3-(((*S)-5,5-dioxido-7,7a,8,9,10,11-hexahydro-6H-dipyrido[2,1-d:2′,3′-][1,2,5]thiadiazepin-6-yl)methyl)-4-methylphenyl)propanoic Acid], the Kd in assay [1] is < 1 nM. The EC50 in assay [2] (Homo sapiens, HEK293, 24 h) was 92.9 nM.

For the compound `Cc1ccc([C@@H](CC(=O)O)c2ccc3c(nnn3CC3CC3)c2C)cc1CN1C[C@H]2CCCN2c2ncccc2S1(=O)=O` (single isomer, unassigned) [Example 401, (*R)-3-(1-(Cyclopropylmethyl)-4-methyl-1H-benzo[d][1,2,3]triazol-5-yl)-3-(3-(((R)-5,5-dioxido-7a,8,9,10-tetrahydropyrido[2,3-f]pyrrolo[2,1-d][1,2,5]thiadiazepin-6(7H)-yl)methyl)-4-methylphenyl)propanoic acid], the Kd in assay [1] is < 1 nM. The compound also displayed an EC50 in assay [2] (Homo sapiens, HEK293, 24 h) of 2.7 nM.

Regarding `Cc1ccc([C@H](CC(=O)O)c2ccc3c(nnn3CC3CC3)c2C)cc1CN1C[C@H]2CCCN2c2ncccc2S1(=O)=O` (single isomer, unassigned) [Example 402, (*S)-3-(1-(Cyclopropylmethyl)-4-methyl-1H-benzo[d][1,2,3]triazol-5-yl)-3-(3-(((R)-5,5-dioxido-7a,8,9,10-tetrahydropyrido[2,3-f]pyrrolo[2,1-d][1,2,5]thiadiazepin-6(7H)-yl)methyl)-4-methylphenyl)propanoic Acid], the Kd in assay [1] is < 1 nM. Besides, the midpoint of the response in assay [2] (Homo sapiens, HEK293, 24 h), the EC50, lay at 27.9 nM.

`Cc1ccc([C@@H](CC(=O)O)c2cc(OC3CC3)c3c(c2)nnn3C)cc1CN1C[C@H]2CCCCN2c2ncccc2S1(=O)=O` (single isomer, unassigned) [Example 404, (*R)-3-(7-Cyclopropoxy-1-methyl-1H-benzo[d][1,2,3]triazol-5-yl)-3-(3-(((*R)-5,5-dioxido-7,7a,8,9,10,11-hexahydro-6H-dipyrido[2,1-d:2′,3′-f][1,2,5]thiadiazepin-6-yl)methyl)-4-methylphenyl)propanoic Acid]: the Kd in assay [1] was < 1 nM. In addition, in assay [2] (Homo sapiens, HEK293, 24 h), the EC50 was 19.6 nM.

`Cc1ccc([C@H](CC(=O)O)c2cc(OC3CC3)c3c(c2)nnn3C)cc1CN1C[C@H]2CCCCN2c2ncccc2S1(=O)=O` (single isomer, unassigned) [Example 405, (*S)-3-(7-Cyclopropoxy-1-methyl-1H-benzo[d][1,2,3]triazol-5-yl)-3-(3-(((*R)-5,5-dioxido-7,7a,8,9,10,11-hexahydro-6H-dipyrido[2,1-d:2′,3′-f][1,2,5]thiadiazepin-6-yl)methyl)-4-methylphenyl)propanoic Acid]: in assay [1], the dissociation constant (Kd) was < 1 nM. In assay [2] (Homo sapiens, HEK293, 24 h), this compound returned an EC50 of 7.4 nM.

As to `Cc1cnc2c(c1)S(=O)(=O)N(Cc1cc([C@H](c3ccn4c(C(F)(F)F)nnc4c3C)C(C)(C)C(=O)O)ccc1C)CC1(CCOCC1)O2` (single isomer, unassigned) [Example 408, (*R)-2,2-dimethyl-3-(4-methyl-3-((8′-methyl-1′,1′-dioxido-2,3,5,6-tetrahydrospiro[pyran-4,4′-pyrido[2,3-b][1,4,5]oxathiazepin]-2′(3′H)-yl)methyl)phenyl)-3-(8-methyl-3-(trifluoromethyl)-[1,2,4]triazolo[4,3-a]pyridin-7-yl)propanoic Acid], the Kd in assay [1] stood at 1280 nM. The compound also came in with a concentration for a half-maximal effect (EC50) in assay [2] (24 hours) of 790 nM.

With `Cc1ccc([C@@H](c2ccn3c(C(F)(F)F)nnc3c2C)C(C)(C)C(=O)O)cc1CN1CC2(CCOCC2)Oc2ncccc2S1(=O)=O` (single isomer, unassigned) [Example 409, (*S)-3-(3-((1′,1′-dioxido-2,3,5,6-tetrahydrospiro[pyran-4,4′-pyrido[2,3-b][1,4,5]oxathiazepin]-2′(3′H)-yl)methyl)-4-methylphenyl)-2,2-dimethyl-3-(8-methyl-3-(trifluoromethyl)-[1,2,4]triazolo[4,3-a]pyridin-7-yl)propanoic Acid], the equilibrium dissociation constant (Kd) in assay [1] is < 1 nM. In addition, in assay [2] (Homo sapiens, HEK293, 24 h), the EC50 was 2.64 nM.

Consider `Cc1ccc([C@H](c2ccn3c(C(F)(F)F)nnc3c2C)C(C)(C)C(=O)O)cc1CN1CC2(CCOCC2)Oc2ncccc2S1(=O)=O` (single isomer, unassigned) [Example 410, (*R)-3-(3-((1′,1′-dioxido-2,3,5,6-tetrahydrospiro[pyran-4,4′-pyrido[2,3-b][1,4,5]oxathiazepin]-2′(3′H)-yl)methyl)-4-methylphenyl)-2,2-dimethyl-3-(8-methyl-3-(trifluoromethyl)-[1,2,4]triazolo[4,3-a]pyridin-7-yl)propanoic Acid], for which the Kd in assay [1] is 2400 nM. Moreover, a half-maximal response in assay [2] (Homo sapiens, HEK293, 24 h) (EC50) required 1220 nM.

On to `CCn1nnc2c(C)c([C@H](CC(=O)O)c3ccc(C)c(CN4CC5(CCOCC5)Oc5ccc(F)cc5S4(=O)=O)n3)ccc21` (single isomer, unassigned) [Example 418, (*S)-3-(1-ethyl-4-methyl-1H-benzo[d][1,2,3]triazol-5-yl)-3-(6-((8-fluoro-1,1-dioxido-2′,3′,5′,6′-tetrahydrospiro[benzo[b][1,4,5]oxathiazepine-4,4′-pyran]-2(3H)-yl)methyl)-5-methylpyridin-2-yl)propanoic Acid], for which the Kd in assay [1] is < 1 nM. Besides, a half-maximal effect in assay [2] (Homo sapiens, HEK293, 24 h) (EC50) was put at 0.96 nM.

As to `CCn1nnc2c(C)c(C(CC(=O)O)c3ccc(C)c(CN4CC5(CCOCC5)Oc5ccc(F)cc5S4(=O)=O)n3)ccc21` (single isomer, unassigned) [Example 419, (*R)-3-(1-ethyl-4-methyl-1H-benzo[d][1,2,3]triazol-5-yl)-3-(6-((8-fluoro-1,1-dioxido-2′,3′,5′,6′-tetrahydrospiro[benzo[b][1,4,5]oxathiazepine-4,4′-pyran]-2(3H)-yl)methyl)-5-methylpyridin-2-yl)propanoic Acid], the dissociation constant Kd in assay [1] was < 1 nM. Also, in assay [2] (Homo sapiens, HEK293, 24 h), the EC50 was found to be 4.15 nM.

On to `CCn1nnc2c(C)c([C@H](c3ccc(C)c(CN4CC5(CCOCC5)Oc5ncc(C)cc5S4(=O)=O)c3)C(C)(C)C(=O)O)ccc21` (single isomer, unassigned) [Example 420, (*S)-3-(1-ethyl-4-methyl-1H-benzo[d][1,2,3]triazol-5-yl)-2,2-dimethyl-3-(4-methyl-3-((8′-methyl-1′,1′-dioxido-2,3,5,6-tetrahydrospiro[pyran-4,4′-pyrido[2,3-b][1,4,5]oxathiazepin]-2′(3′H)-yl)methyl)phenyl)propanoic Acid], for which the Kd in assay [1] is 268 nM. This compound also came in with a concentration for a half-maximal effect (EC50) in assay [2] (Homo sapiens, HEK293, 24 h) of 57.8 nM.

Take `Cc1ccc([C@@H](c2ccn3c(C(F)(F)F)nnc3c2C)C(C)(C)C(=O)O)cc1CN1C[C@H]2CCCCN2c2ncc(C#N)cc2S1(=O)=O` (single isomer, unassigned) [Example 422, (*S)-3-(3-(((*R)-3-cyano-5,5-dioxido-7,7a,8,9,10,11-hexahydro-6H-dipyrido[2,1-d:2′,3′-f][1,2,5]thiadiazepin-6-yl)methyl)-4-methylphenyl)-2,2-dimethyl-3-(8-methyl-3-(trifluoromethyl)-[1,2,4]triazolo[4,3-a]pyridin-7-yl)propanoic Acid]: the Kd in assay [1] was < 1 nM. In assay [2] (Homo sapiens, HEK293, 24 h), this compound gave an EC50 of 1.3 nM.

Turning to `Cc1ccc([C@H](c2ccn3c(C(F)(F)F)nnc3c2C)C(C)(C)C(=O)O)cc1CN1C[C@H]2CCCCN2c2ncc(C#N)cc2S1(=O)=O` (single isomer, unassigned) [Example 423, (*R)-3-(3-(((*R)-3-cyano-5,5-dioxido-7,7a,8,9,10,11-hexahydro-6H-dipyrido[2,1-d:2′,3′-f][1,2,5]thiadiazepin-6-yl)methyl)-4-methylphenyl)-2,2-dimethyl-3-(8-methyl-3-(trifluoromethyl)-[1,2,4]triazolo[4,3-a]pyridin-7-yl)propanoic Acid], the Kd in assay [1] came to 586 nM. For the same compound, in assay [2] (Homo sapiens, HEK293, 24 h), the 50% effective concentration (EC50) was found to be 409 nM.

Regarding `Cc1ccc([C@@H](c2ccn3c(C(F)(F)F)nnc3c2C)C(C)(C)C(=O)O)cc1CN1C[C@@H]2CCCCN2c2ncc(C#N)cc2S1(=O)=O` (single isomer, unassigned) [Example 424, (*S)-3-(3-(((*S)-3-cyano-5,5-dioxido-7,7a,8,9,10,11-hexahydro-6H-dipyrido[2,1-d:2′,3′-f][1,2,5]thiadiazepin-6-yl)methyl)-4-methylphenyl)-2,2-dimethyl-3-(8-methyl-3-(trifluoromethyl)-[1,2,4]triazolo[4,3-a]pyridin-7-yl)propanoic Acid], the Kd in assay [1] was < 1 nM. A half-maximal effect in assay [2] (Homo sapiens, HEK293, 24 h) (EC50) was put at 1.65 nM.
